Laboratory results as given in ChEMBL document CHEMBL5291721, “A preclinical secondary pharmacology resource illuminates target-adverse drug reaction associations of marketed drugs” (Nat Commun, 2023).

Experiments:
[1] = biological target: T1, Retinoic acid receptor beta (Homo sapiens, UniProt P10826); format: functional, cell-based
T1 sequence (P10826 whole entry): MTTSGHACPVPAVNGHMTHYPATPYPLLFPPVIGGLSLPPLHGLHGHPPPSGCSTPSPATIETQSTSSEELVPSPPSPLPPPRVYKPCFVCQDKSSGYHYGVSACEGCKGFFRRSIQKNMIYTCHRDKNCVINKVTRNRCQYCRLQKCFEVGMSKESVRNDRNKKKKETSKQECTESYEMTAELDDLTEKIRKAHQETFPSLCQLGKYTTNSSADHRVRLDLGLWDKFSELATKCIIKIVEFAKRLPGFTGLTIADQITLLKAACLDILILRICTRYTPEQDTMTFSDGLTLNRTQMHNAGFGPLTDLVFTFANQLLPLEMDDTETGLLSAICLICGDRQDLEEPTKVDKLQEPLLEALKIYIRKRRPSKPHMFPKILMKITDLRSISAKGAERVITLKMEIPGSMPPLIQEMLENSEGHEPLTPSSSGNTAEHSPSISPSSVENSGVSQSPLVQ

[2] = biological target: T2, Oxysterols receptor LXR-alpha (Homo sapiens, UniProt Q13133); format: functional
T2 sequence (Q13133 whole entry): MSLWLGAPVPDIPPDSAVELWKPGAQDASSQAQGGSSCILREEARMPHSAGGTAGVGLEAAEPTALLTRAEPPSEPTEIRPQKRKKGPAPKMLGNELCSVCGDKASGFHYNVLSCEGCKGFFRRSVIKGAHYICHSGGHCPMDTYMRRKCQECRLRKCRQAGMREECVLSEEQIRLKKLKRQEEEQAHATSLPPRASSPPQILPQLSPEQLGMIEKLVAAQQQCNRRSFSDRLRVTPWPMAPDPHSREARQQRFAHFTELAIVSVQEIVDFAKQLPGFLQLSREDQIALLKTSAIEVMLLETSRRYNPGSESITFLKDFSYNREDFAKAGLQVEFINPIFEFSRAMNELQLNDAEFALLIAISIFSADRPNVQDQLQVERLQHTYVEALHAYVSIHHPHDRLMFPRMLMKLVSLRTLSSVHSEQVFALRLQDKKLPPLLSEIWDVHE

Bile acid receptor [3] = biological target: T3, Bile acid receptor (Homo sapiens, UniProt Q96RI1); format: functional
T3 sequence (Q96RI1 whole entry): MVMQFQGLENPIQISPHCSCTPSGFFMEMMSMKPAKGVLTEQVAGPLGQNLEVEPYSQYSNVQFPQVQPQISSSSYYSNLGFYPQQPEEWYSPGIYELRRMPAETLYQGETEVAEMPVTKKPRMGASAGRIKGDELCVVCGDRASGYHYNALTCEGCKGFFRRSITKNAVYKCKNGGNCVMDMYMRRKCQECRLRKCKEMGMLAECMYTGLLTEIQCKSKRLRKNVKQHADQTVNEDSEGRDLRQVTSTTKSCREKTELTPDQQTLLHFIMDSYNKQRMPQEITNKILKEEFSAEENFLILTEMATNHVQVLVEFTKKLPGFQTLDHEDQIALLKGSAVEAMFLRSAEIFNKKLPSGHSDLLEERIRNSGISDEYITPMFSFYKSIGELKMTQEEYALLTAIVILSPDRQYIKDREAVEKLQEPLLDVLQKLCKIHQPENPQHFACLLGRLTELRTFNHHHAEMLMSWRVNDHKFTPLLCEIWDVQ

[4] = biological target: T4, Oxysterols receptor LXR-beta (Homo sapiens, UniProt P55055); format: functional
T4 sequence (P55055 whole entry): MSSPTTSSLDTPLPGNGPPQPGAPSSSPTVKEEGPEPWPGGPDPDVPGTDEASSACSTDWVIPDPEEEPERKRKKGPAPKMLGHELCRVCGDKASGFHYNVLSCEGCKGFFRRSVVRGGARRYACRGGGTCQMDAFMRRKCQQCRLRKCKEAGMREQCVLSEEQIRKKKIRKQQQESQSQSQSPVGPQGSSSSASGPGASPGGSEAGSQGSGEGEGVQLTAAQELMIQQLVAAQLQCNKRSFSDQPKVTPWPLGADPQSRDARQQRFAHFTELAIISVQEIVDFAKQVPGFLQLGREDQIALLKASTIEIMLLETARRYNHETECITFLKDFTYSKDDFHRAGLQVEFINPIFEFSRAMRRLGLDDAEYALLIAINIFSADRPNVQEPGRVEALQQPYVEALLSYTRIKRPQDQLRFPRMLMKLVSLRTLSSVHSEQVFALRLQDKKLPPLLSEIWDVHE

Bile acid receptor [5] = biological target: T3, Bile acid receptor; format: functional; remark: listed apart in the source
[6] = biological target: T5, 5-hydroxytryptamine receptor 1A (Homo sapiens, UniProt P08908)
T5 sequence (P08908 whole entry): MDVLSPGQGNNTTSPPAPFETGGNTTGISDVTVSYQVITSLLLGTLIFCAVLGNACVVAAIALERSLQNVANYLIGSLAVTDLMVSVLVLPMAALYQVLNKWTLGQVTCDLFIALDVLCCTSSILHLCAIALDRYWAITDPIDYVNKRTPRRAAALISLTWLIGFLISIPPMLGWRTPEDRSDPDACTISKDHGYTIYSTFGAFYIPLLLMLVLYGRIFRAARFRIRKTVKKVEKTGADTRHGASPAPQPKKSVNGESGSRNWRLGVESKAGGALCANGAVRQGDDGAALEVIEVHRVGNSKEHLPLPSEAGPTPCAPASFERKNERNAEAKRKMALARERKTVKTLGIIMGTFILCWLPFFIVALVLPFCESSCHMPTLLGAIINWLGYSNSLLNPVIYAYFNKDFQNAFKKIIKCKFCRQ

[7] = biological target: T6, Alpha-1A adrenergic receptor (Homo sapiens, UniProt P35348)
T6 sequence (P35348 whole entry): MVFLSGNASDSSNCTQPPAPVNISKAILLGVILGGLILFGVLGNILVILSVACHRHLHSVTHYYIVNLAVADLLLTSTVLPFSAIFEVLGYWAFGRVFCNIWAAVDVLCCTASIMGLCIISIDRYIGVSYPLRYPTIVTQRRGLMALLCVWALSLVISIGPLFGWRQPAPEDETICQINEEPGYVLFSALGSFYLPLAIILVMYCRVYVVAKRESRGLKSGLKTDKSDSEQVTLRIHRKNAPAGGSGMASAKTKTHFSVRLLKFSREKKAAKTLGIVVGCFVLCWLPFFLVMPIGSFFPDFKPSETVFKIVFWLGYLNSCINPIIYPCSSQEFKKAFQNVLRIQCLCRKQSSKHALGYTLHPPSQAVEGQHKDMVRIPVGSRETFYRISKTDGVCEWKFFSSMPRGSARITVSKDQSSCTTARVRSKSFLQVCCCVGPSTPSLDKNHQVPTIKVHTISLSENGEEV
Note: assay procedure not described here.

Structure (SMILES) | AC50 [1] [µM] | AC50 [2] [µM] | AC50 (Bile acid receptor [3]) [µM] | AC50 [4] [µM] | AC50 (Bile acid receptor [5]) [µM] | AC50 [6] [µM] | AC50 [7] [µM]
Cc1c(C(=O)NN2CCCCC2)nn(-c2ccc(Cl)cc2Cl)c1-c1ccc(Cl)cc1 [RIMONABANT] | > 30 | > 30 | > 30 | > 30 | > 30 |  | 
Cc1cn([C@H]2C=C[C@@H](CO)O2)c(=O)[nH]c1=O [STAVUDINE] |  |  |  |  |  | > 30 | 
CN1C(C(=O)Nc2ccccn2)=C(O)c2sc(Cl)cc2S1(=O)=O [LORNOXICAM] | > 30 | > 30 | > 30 | > 30 | > 30 |  | 
CCc1oc2ccccc2c1C(=O)c1cc(I)c(O)c(I)c1 [BENZIODARONE] |  |  |  |  |  |  | > 30
O=C(OCC(O)CO)c1ccccc1Nc1ccnc2cc(Cl)ccc12 (centres undefined) [GLAFENINE] |  |  |  |  |  | > 30 | 
CC[C@H]1OC(=O)[C@H](C)[C@@H](O[C@H]2C[C@@](C)(OC)[C@@H](O)[C@H](C)O2)[C@H](C)[C@@H](O[C@@H]2O[C@H](C)C[C@H](N(C)C)[C@H]2O)[C@](C)(O)C[C@@H](C)CN(C)[C@H](C)[C@@H](O)[C@]1(C)O [AZITHROMYCIN] |  |  |  |  |  |  | > 30
